Laboratory results from patent publication US7498404B2, “Compositions, methods and uses for a novel family of peptides” (priority 2004, dated 2009).

What was measured:
[1] = biological target: Module 8 A-domain protein (Brevibacillus texasporus, UniProt Q2VQ14); test: ATP-PPi exchange assay, Module 8 A-domain; assay type: biochemical; conditions: 0.5 mM amino acid, 2 μM protein, 37° C., 15 min
Protocol: (§1) Cloning, overexpression, and purification of His10-tagged BT A-domain proteins. DNA fragments encoding the A-domains of the BT NRPS Modules 8, 5, 7, 4 and 2 (Bt8A, Bt5A, Bt7A, Bt4A and Bt2A) were PCR-amplified and the PCR products were inserted into the His10-tag recombinant protein expression vector pET16b (Novagen). The A-domain borders were determined as defined by (Konz, et al., 1999). The expression constructs were transformed into the E.coli BL21 -AI strain (Invitrogen). Transformants were grown in L-broth at 37° C. to an A600 of 0.6 and then induced with 1 mM IPTG (isopropyl-β-D-thiogalactopyranoside) plus 0.2% L-arabinose. The cells were allowed to grow for two additional hours at 30° C. before being harvested. Purification of the His10-tag recombinant proteins was achieved using the TALON metal affinity resins (BD Biosciences) under conditions recommended in the manual with modifications. Briefly, the E. coli cells were broken by sonication. Cell lysates were cleared by centrifugation at 25,000× g for one hour. […] Eluted proteins were dialyzed against a buffer (50 mM HEPES, pH 8.0, 100 mM sodium chloride, 10 mM magnesium chloride, and 1 mM EDTA) and then analyzed with SDS PAGE plus Coomassie Blue staining. […] Concentrations of the purified proteins were determined by using the calculated molar extinction coefficient for the A280.
(§2) ATP-PPi exchange assay. […] The charcoal/water suspension was added to a scintillation vial containing 5.0 ml of scintillation fluid, and the bound radioactivity was determined by liquid scintillation counting. […]
(§3) Since a purified recombinant A-domain of an NRPS module can selectively and efficiently activate the cognate amino acid substrate of the NRPS module in an ATP-PPi exchange assay (Konz, et al., 1999; Mootz & Marahiel, 1997), ATP-PPi exchange assays have been used to experimentally establish NRPS module specificities and novel NRPS codons. […] A-domain specificities were determined in ATP-PPi exchange and aa Km assays (see Methods and Materials), and the results are shown in FIG. 5. […]

[2] = biological target: Module 5 A-domain protein (Brevibacillus texasporus, UniProt Q2VQ15); test: ATP-PPi exchange assay, Module 5 A-domain; assay type: biochemical; conditions: 0.5 mM amino acid, 0.2 μM protein, 37° C., 15 min
Protocol: as §1, §2, §3

[3] = biological target: Module 4 A-domain protein (Brevibacillus texasporus, UniProt Q2VQ15); test: ATP-PPi exchange assay, Module 4 A-domain; assay type: biochemical; conditions: 0.5 mM amino acid, 0.2 μM protein, 37° C., 15 min
Protocol: as §1, §2, §3

[4] = system: Module 2 A-domain protein; test: ATP-PPi exchange assay, Module 2 A-domain; assay type: biochemical, Brevibacillus texasporus; conditions: 0.5 mM amino acid, 37° C., 15 min
Protocol: Cloning, overexpression, and purification of His10-tagged BT A-domain proteins. DNA fragments encoding the A-domains of the BT NRPS Modules 8, 5, 7, 4 and 2 (Bt8A, Bt5A, Bt7A, Bt4A and Bt2A) were PCR-amplified and the PCR products were inserted into the His10-tag recombinant protein expression vector pET16b (Novagen). The A-domain borders were determined as defined by (Konz, et al., 1999). The expression constructs were transformed into the E.coli BL21 -AI strain (Invitrogen). Transformants were grown in L-broth at 37° C. to an A600 of 0.6 and then induced with 1 mM IPTG (isopropyl-β-D-thiogalactopyranoside) plus 0.2% L-arabinose. The cells were allowed to grow for two additional hours at 30° C. before being harvested. Purification of the His10-tag recombinant proteins was achieved using the TALON metal affinity resins (BD Biosciences) under conditions recommended in the manual with modifications. Briefly, the E. coli cells were broken by sonication. Cell lysates were cleared by centrifugation at 25,000× g for one hour. His-tagged recombinant proteins were then incubated with the TALON resin, washed, and eluted with 500 mM imidazole. Eluted proteins were dialyzed against a buffer (50 mM HEPES, pH 8.0, 100 mM sodium chloride, 10 mM magnesium chloride, and 1 mM EDTA) and then analyzed with SDS PAGE plus Coomassie Blue staining. […] Concentrations of the purified proteins were determined by using the calculated molar extinction coefficient for the A280.
ATP-PPi exchange assay. ATP-PPi exchange assays were performed to determine the substrate specificity of an A-domain. ATP-PPi exchanges were assayed as previously described (Stachelhaus, et al., 1998) with minor modifications. The assay mixture contained 50 mM HEPES (pH 8.0), 100 mM NaCl, 10 mM MgCl2, 2 mM ATP, 0.5 mM amino acid, 0.05 mM PPi, 0.15 μCi tetrasodium [^32P]pyrophosphate. Exchange was initiated by addition of purified recombinant A-domain proteins to a total volume of 0.1 ml. The protein concentrations were 0.2 μM for Module 4 and Module 5 A-domains while 2 μM for Module 7 and Module 8 A-domains. After incubation at 37° C. for 15 min, the reaction was stopped by addition of 0.5 ml of Termination Mix (100 mM tetrasodium pyrophosphate, 3.5% HClO4, and 1.6% [w/v] activated charcoal). The charcoal was pelleted by centrifugation, washed first with 40 mM pyrophosphate plus 1.4% perchloric acid and then with water, and was re-suspended in 0.5 ml of water. The charcoal/water suspension was added to a scintillation vial containing 5.0 ml of scintillation fluid, and the bound radioactivity was determined by liquid scintillation counting. The apparent Km values were determined with substrate concentrations ranging from 0.1 to 10 mM.
Since a purified recombinant A-domain of an NRPS module can selectively and efficiently activate the cognate amino acid substrate of the NRPS module in an ATP-PPi exchange assay (Konz, et al., 1999; Mootz & Marahiel, 1997), ATP-PPi exchange assays have been used to experimentally establish NRPS module specificities and novel NRPS codons. Recombinant A-domains of Modules 8, 5, 7 ,4 and 2 of the BT NRPS were produced and purified as described in Methods and Materials. Almost completely soluble recombinant A-domain proteins were obtained. A-domain specificities were determined in ATP-PPi exchange and aa Km assays (see Methods and Materials), and the results are shown in FIG. 5. […]

[5] = biological target: T1, Module 7 A-domain protein (Brevibacillus texasporus, UniProt Q2VQ15); test: ATP-PPi exchange assay, Module 7 A-domain; assay type: biochemical
T1 sequence (Q2VQ15 3560-4063): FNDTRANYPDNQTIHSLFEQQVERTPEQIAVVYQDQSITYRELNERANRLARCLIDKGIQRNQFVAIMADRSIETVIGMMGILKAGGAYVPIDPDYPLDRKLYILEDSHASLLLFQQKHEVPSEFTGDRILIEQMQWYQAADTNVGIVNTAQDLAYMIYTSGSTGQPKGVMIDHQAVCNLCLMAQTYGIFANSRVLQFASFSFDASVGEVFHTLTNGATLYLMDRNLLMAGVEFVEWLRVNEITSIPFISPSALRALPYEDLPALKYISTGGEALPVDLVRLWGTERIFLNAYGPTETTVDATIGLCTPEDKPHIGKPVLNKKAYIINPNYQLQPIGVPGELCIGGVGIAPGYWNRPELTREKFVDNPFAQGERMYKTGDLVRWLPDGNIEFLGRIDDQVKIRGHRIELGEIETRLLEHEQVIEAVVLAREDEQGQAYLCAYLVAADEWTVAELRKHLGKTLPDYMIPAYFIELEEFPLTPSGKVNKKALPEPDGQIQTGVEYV
Protocol: as §1, with “harvested.” for “harvested. Purification of the His10-tag recombinant proteins was achieved using the TALON metal affinity resins (BD Biosciences) under conditions recommended in the manual with modifications. Briefly, the E. coli cells were broken by sonication. Cell lysates were cleared by centrifugation at 25,000× g for one hour.”
as §2

Module 5 A-domain protein, sequence (Q2VQ15 entry or part of it): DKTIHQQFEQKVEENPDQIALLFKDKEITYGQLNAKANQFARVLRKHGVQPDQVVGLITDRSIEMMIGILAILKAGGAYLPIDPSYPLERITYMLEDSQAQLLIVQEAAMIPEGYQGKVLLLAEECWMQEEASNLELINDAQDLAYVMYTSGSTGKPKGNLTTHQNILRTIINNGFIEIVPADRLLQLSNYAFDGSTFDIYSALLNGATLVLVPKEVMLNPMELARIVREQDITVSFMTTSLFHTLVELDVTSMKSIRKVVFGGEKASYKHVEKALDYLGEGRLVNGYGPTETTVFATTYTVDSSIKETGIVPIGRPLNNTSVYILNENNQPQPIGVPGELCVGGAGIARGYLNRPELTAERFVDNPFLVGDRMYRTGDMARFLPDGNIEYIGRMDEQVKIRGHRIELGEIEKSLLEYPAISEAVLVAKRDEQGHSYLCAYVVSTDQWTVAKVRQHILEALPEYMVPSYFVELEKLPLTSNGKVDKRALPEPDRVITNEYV
Module 8 A-domain protein, sequence (Q2VQ14 entry or part of it): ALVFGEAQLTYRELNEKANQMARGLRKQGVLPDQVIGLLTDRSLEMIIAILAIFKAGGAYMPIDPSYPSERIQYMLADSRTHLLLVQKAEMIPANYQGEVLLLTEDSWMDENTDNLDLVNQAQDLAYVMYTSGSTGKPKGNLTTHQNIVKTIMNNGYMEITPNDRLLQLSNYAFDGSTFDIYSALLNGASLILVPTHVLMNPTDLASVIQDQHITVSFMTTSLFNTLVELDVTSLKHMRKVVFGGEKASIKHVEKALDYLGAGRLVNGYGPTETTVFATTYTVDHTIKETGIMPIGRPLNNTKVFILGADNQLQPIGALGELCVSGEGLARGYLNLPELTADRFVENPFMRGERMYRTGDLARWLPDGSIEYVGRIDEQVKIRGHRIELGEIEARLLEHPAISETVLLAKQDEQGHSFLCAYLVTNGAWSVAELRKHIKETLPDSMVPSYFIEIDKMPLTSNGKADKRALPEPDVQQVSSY
Module 4 A-domain protein, sequence (Q2VQ15 entry or part of it): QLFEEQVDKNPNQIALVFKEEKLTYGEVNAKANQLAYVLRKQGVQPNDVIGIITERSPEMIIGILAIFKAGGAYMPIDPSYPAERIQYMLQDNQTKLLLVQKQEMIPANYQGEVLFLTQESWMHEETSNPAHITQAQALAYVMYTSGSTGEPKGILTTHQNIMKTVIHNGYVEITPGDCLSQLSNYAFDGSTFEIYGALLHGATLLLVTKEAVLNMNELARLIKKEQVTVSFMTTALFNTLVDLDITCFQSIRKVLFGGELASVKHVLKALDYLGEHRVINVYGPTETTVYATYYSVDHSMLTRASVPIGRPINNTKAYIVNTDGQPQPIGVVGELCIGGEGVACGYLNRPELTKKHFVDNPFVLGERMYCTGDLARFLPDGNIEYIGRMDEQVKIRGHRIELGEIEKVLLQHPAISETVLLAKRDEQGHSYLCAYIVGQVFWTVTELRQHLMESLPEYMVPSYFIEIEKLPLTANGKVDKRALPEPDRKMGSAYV

| SMILES | relative substrate activation (highest activity defined as 100%) [1] [%] | relative substrate activation (highest activity defined as 100%) [2] [%] | relative substrate activation (highest activity defined as 100%) [3] [%] | relative substrate activation (highest activity defined as 100%) [4] [%] | substrate activation ([5]; 0.5 mM amino acid, 2 μM protein, 20 proteinogenic amino acids and L-Orn tested) | Km ([5]; substrate 0.1 to 10 mM, read-out: apparent Km) [µM] |
| --- | --- | --- | --- | --- | --- | --- |
| CC[C@H](C)[C@H](N)C(=O)O [L-Ile] | 4 | 23 | 100 | 19 | – | – |
| CC(C)C[C@H](N)C(=O)O [L-Leu] | – | 17 | 7 | 98 | – | – |
| NCCCC[C@H](N)C(=O)O [L-Lys] | 10 | – | – | – | only amino acid that activated | 1120 |
| CSCC[C@H](N)C(=O)O [L-Met] | – | – | – | 100 | – | – |
| N[C@@H](Cc1ccccc1)C(=O)O [L-Phe] | – | – | – | 3.5 | – | – |
